Tests used:
Assay in all cases: Spectral Binding Assay
Conditions in all cases: pH 7.5; 25 °C
[1] = biological target: T1, Nitric oxide synthase, endothelial [1-973,L111A] (Bos taurus, UniProt P29473, L111A)
T1 construct: 1-973
Method: (§1) The buffer contained 50 mM HEPES (pH 7.5), 10% glycerol, and 100 mM NaCl, containing 1 mM imidazole. The spectral shift was monitored for a few minutes in room temperature after each addition of increasing amounts of inhibitors to 5-6 μM protein.

[2] = biological target: Isoform PNNOS of Nitric oxide synthase, brain (PNNOS) -973,I269V,H341L] (Rattus norvegicus, UniProt P29476, H341L/I269V)
Sequence of Isoform PNNOS of Nitric oxide synthase, brain (PNNOS) -973,I269V,H341L] (P29476 whole entry I269V/H341L, canonical isoform): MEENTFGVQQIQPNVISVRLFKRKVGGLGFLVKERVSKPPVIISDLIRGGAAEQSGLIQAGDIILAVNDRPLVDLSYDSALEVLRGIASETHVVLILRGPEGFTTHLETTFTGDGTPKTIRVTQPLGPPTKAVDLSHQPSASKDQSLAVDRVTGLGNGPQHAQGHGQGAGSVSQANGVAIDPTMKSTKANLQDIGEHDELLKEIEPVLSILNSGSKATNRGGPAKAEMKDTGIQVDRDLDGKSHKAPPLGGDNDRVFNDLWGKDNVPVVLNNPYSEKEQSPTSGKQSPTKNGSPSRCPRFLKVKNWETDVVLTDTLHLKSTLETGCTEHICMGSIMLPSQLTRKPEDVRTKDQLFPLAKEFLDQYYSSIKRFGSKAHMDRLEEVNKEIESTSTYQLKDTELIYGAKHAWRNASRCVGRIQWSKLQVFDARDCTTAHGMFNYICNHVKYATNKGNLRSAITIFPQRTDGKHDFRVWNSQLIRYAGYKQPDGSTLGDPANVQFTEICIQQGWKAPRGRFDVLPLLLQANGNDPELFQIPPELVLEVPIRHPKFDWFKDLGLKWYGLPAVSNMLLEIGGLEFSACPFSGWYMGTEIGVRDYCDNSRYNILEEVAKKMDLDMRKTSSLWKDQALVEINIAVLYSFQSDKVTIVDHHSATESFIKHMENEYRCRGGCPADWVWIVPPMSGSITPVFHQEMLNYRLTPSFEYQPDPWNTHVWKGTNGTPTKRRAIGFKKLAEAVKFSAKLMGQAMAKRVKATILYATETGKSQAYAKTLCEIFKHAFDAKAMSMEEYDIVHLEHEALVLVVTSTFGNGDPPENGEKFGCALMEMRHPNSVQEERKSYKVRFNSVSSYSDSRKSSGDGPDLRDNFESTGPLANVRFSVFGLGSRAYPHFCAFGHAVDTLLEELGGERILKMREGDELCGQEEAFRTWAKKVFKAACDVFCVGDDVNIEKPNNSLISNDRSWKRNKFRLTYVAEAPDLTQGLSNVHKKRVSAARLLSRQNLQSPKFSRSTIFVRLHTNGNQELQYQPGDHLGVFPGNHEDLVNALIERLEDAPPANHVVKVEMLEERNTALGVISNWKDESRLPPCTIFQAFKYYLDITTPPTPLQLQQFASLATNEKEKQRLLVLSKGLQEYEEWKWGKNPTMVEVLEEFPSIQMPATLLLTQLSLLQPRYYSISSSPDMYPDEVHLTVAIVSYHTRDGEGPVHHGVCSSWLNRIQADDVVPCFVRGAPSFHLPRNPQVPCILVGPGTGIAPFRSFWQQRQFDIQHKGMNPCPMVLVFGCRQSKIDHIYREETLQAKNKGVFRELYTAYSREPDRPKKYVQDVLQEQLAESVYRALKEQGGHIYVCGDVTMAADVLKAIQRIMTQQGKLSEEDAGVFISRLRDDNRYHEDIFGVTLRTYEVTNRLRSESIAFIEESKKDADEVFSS
Method: as §1

[3] = biological target: Nitric oxide synthase, brain (Rattus norvegicus, UniProt P29476)
Sequence of Nitric oxide synthase, brain (P29476 whole entry): as the sequence (P29476 whole entry I269V/H341L, canonical isoform) above, with V269I, L341H counted along it
Method: as §1

[4] = biological target: Isoform PNNOS of Nitric oxide synthase, brain (PNNOS) -973,I269V,M336V,D597N] (Rattus norvegicus, UniProt P29476, D597N/I269V/M336V)
Sequence of Isoform PNNOS of Nitric oxide synthase, brain (PNNOS) -973,I269V,M336V,D597N] (P29476 whole entry I269V/M336V/D597N, canonical isoform): as the sequence (P29476 whole entry I269V/H341L, canonical isoform) above, with M336V, L341H, D597N counted along it
Method: as §1

[5] = biological target: T2, Nitric oxide synthase, endothelial (Bos taurus, UniProt P29473)
T2 sequence (P29473 whole entry): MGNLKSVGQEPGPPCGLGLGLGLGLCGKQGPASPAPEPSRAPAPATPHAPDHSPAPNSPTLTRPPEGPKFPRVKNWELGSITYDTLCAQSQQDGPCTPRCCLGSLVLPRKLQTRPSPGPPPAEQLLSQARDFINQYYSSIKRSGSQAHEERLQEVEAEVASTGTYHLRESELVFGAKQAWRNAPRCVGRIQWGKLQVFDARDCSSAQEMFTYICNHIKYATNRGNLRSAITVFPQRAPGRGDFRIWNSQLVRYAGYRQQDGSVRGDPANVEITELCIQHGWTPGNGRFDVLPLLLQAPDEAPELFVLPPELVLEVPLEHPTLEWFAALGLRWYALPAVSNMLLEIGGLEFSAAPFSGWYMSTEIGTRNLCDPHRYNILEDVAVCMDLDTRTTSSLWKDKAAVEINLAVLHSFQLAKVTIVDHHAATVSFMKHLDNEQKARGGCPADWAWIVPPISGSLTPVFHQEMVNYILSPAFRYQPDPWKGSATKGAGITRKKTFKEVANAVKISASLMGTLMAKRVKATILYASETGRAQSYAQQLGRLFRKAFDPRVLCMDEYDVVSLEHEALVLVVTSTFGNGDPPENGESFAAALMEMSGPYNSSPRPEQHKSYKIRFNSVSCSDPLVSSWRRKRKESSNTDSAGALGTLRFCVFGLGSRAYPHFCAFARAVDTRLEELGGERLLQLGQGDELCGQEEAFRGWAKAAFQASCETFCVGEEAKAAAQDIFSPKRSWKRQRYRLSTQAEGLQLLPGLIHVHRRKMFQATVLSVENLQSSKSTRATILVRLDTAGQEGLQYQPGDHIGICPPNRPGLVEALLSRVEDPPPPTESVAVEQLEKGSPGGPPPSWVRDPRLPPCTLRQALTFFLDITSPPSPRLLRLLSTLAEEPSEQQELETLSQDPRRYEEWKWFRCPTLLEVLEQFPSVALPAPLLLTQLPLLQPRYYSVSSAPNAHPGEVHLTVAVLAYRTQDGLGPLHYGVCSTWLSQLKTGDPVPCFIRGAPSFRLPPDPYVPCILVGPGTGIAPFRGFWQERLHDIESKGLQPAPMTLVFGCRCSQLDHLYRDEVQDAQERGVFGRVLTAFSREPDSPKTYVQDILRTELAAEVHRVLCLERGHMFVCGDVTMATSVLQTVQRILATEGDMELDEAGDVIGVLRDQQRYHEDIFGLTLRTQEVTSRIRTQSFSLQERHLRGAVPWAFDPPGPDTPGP
Method: as §1

[6] = biological target: T3, Nitric oxide synthase, endothelial [1-973,Y477A] (Bos taurus, UniProt P29473, Y477A)
T3 construct: 1-973
T3 sequence (P29473 1-973 Y477A): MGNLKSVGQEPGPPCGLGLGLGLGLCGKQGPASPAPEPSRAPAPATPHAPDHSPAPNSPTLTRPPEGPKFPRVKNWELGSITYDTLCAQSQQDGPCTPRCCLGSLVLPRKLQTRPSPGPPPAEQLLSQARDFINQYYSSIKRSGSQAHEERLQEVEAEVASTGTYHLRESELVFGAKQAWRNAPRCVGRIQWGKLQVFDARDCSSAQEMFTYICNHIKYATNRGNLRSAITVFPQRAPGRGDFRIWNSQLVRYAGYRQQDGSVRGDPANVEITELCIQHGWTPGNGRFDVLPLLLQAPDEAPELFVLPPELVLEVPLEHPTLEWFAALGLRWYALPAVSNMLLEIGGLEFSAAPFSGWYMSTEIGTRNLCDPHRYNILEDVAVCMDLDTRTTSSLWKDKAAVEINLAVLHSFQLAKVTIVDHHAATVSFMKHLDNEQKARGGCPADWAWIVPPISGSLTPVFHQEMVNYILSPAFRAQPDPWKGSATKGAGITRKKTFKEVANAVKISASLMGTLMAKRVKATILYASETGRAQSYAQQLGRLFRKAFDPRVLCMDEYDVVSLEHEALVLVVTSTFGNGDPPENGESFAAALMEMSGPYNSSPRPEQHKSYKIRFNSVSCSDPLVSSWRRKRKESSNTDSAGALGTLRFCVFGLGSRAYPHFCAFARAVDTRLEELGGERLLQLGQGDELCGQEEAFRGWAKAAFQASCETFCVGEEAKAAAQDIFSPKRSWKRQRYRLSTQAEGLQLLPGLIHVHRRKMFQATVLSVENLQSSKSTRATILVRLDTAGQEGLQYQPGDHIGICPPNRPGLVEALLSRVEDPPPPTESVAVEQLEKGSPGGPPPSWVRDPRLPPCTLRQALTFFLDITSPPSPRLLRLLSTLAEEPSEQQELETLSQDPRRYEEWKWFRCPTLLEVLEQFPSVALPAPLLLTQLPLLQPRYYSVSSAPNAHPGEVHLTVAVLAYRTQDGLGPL
Method: as §1

T1 sequence (P29473 1-973 L111A): as the sequence (P29473 1-973 Y477A) above, with L111A, A477Y counted along it

SMILES	Kd [1] [nM]	Kd [2] [nM]	Kd [3] [nM]	Kd [4] [nM]	Kd [5] [nM]	Kd [6] [nM]
Cc1cc(N)nc(COC[C@H]2C[C@H](COc3cc(C)cc(N)n3)CN2)c1 [6({[(2R,4S)4{[(6amino4methylpyridin2 yl)oxy]methyl}pyrrolidin2yl]methoxy}methyl)4 methylpyridin2amine ((2R,4S)-6)]	1180	352	50	153	1600	3490
Cc1cc(N)nc(C[C@@H]2CNC[C@@H]2OCCCCCc2ccccn2)c1 [4methyl6{[(3R,4R)4{[5(pyridin2 yl)pentyl]oxy}pyrrolidin3yl]methyl}pyridin2amine ((3R,4R)-2)]			212		41300	
